Patent publication US20080177101A1, “Synthesis of isotopically labeled alpha-keto acids and esters” (Spectra Gases, Inc., priority 2006, published 2008)

What was measured:
[1] = Concentration studies: stability of pyruvic acid solutions in water at higher concentrations; format: physicochemical; parameters: unit not given here; conditions: light, about 22° C. to about 26° C.
Experimental: Each of these commercial solutions were subjected to light for 6-weeks at temperatures ranging from about 22° C. to about 26° C. At each of the concentrations listed below, it was discovered that the pyruvic acid solutions were stable.

[2] = background description; cited from earlier work
[3] = Shelf storage stability of [1-^13C] pyruvic acid in water, 1H and 13C NMR spectra compared; format: physicochemical; conditions: 0.025M in water
Experimental: Samples of isotopically labeled [1-^13C] pyruvic acid, having Formula VI and synthesized as discussed immediately below, were subjected to various conditions as depicted in Table 1, in order to establish the compound's shelf storage stability.
The resulting [1-^13C] pyruvic acid was tested as follows in Table 1:
^1H and ^13C NMR spectra of the distilled [1-^13C] pyruvic acid in water (0.025M) were acquired at the onset of the study and prior to exposing the samples to the various conditions specified in Table 1. ^1H and ^13C NMR spectra were again acquired for each of the samples after being exposed to the aforementioned conditions on a weekly basis for 12-weeks. The spectra acquired after exposure were compared visually and appeared to remain unchanged as compared with the spectra acquired prior to exposure, i.e. the spectra were as expected for [1-^13C] pyruvic acid in water. As such, it was concluded that each of the samples were shelf stable. Similarly, ^1H and ^13C NMR spectra acquired after 17-weeks of exposure remained unchanged as compared with the spectra acquired prior to exposure.

[4] = Titration of aqueous sample 4 with sodium hydroxide, composition by HPLC; format: physicochemical; conditions: sample 4 titrated with sodium hydroxide to pH of about 6.2
Description: The molarity of sample 4 was confirmed to be 0.025M by titrating the aqueous sample with sodium hydroxide. […] It was also discovered that at pHs greater than 5.8, such as at a pH of about 6.2, some of the pyruvic acid was present in the form of a dimerized sodium salt. […] As such, it was discovered that to minimize dimmer formation, it may be necessary to control the pH of [1-^13C] pyruvate solutions, and in particular, any aqueous solution should be maintained at a pH of about 6.5 or less, more preferably 6.0 or less, and even more preferably 5.8 or less.

[5] = Sample 3, Room temperature (about 22° C. to about 26° C.), Dark
[6] = Sample 4, Room temperature (about 22° C. to about 26° C.), Light

SMILES	Stability After 6-weeks ([1]; Concentration 2.3 in water)	Stability After 6-weeks ([1]; Concentration 2.8 in water)	Stability After 6-weeks ([1]; Concentration 3.8 in water)	Stability After 6-weeks ([1]; Concentration 5.7 in water)	Stability After 6-weeks ([1]; Concentration 11.3 in water)	Solubility in water [2]	Shelf stability, 12 weeks ([3]; Sample 1, −10° C., Dark)	Shelf stability, 17 weeks ([3]; Sample 1, −10° C., Dark)	Shelf stability, 12 weeks ([3]; Sample 2, 4° C., Dark)	Shelf stability, 17 weeks ([3]; Sample 2, 4° C., Dark)	Shelf stability, 12 weeks [3, 5]	Shelf stability, 17 weeks [3, 5]	Shelf stability, 12 weeks [3, 6]	Shelf stability, 17 weeks [3, 6]	Share of the pyruvic acid accounted for by dimerized salt [4]
CC(=O)C(=O)O [Pyruvic acid, 2-oxopropanoic acid]	Stable	Stable	Stable	Stable	Stable	soluble in water									
CC(=O)[13C](=O)O [[1-^13C] pyruvic acid]							Stable	Stable	Stable	Stable	Stable	Stable	Stable	Stable	4-6%
